The text below walks through data of US11034650B2, “Compounds useful for treating a Mannheimia haemolytica or Histophilus somni infection” (Intervet Inc., priority 2016, dated 2021).

Holding throughout (assay type): cell-based
The test system of assay [1] is Pasteurella multocida PM 10775 (080130003051, BRD field isolate). In words: MIC, broth-microdilution (CLSI VET01-A4), strain PM 10775. To be noted: Pasteurella multocida strain PM 10775, broth-microdilution; unit assumed. Put shortly:
(§1)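 Test articles are arrayed as a twofold dilution range in microdilution trays. Wells are scored by naked eye, and the MIC is taken where turbidity first disappears.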
In general terms: Dilution methods test growth across graded concentrations, often in twofold steps.

For assay [2], the system named is Pasteurella multocida PM 6391 (ATCC 43137, reference strain). Kind of assay: MIC, broth-microdilution (CLSI VET01-A4), strain PM 6391. Conditions: Pasteurella multocida strain PM 6391, broth-microdilution; unit assumed. On the procedure: For example, representative compounds were tested against ***, Mannheimia haemolytica and Pasteurella multocida, using the conventional broth-dilution assay.
The Minimum inhibitory concentrations (MIC) of compounds according to the invention for a number of veterinary bacterial pathogens were determined by the broth-microdilution method according to CLSI document VET01-A4.
Microdilution trays containing a doubling dilution series of the test compound were used for the tests. The MIC results were interpreted according to the CLSI documents VET01-S3. The lowest concentration of compound at which no visible growth (i.e. no turbidity) detected by the unaided eye was recorded as the MIC.

Assay [3] has as its system Mannheimia haemolytica MH 6357 (M7/2, reference strain, cattle infection strain). In words: MIC, broth-microdilution (CLSI VET01-A4), strain MH 6357. To be noted: Mannheimia haemolytica strain MH 6357, broth-microdilution; unit assumed. The procedure, abridged: as §1
In assay [4] the test system is Mannheimia haemolytica MH 13065 (XB0446-6003.9, BRD field isolate). In words: MIC, broth-microdilution (CLSI VET01-A4), strain MH 13065. To be noted: Mannheimia haemolytica strain MH 13065, broth-microdilution; unit assumed. Put shortly: as §1
Assay [5] deals with Mannheimia haemolytica MH 10720 (154, BRD field isolate). In words: MIC, broth-microdilution (CLSI VET01-A4), strain MH 10720. To be noted: Mannheimia haemolytica strain MH 10720, broth-microdilution; unit assumed. The procedure, abridged:
as §1

Assay [6] concerns Mannheimia haemolytica MH 6374 (ATCC 33396, reference strain). In words: MIC, broth-microdilution (CLSI VET01-A4), strain MH 6374. To be noted: Mannheimia haemolytica strain MH 6374, broth-microdilution; unit assumed. The procedure, abridged: as §1
Assay [7] deals with Mannheimia haemolytica MH 12587 (1071, BRD field isolate, macrolide-resistance: erm+, E+). Kind of assay: MIC, broth-microdilution (CLSI VET01-A4), strain MH 12587. To be noted: Mannheimia haemolytica strain MH 12587, broth-microdilution; unit assumed. Put shortly: as §1
For assay [8], the system named is Pasteurella multocida PM 6267 (P 2225 (L386), reference strain, mouse infection strain). In words: MIC, broth-microdilution (CLSI VET01-A4), strain PM 6267. To be noted: Pasteurella multocida strain PM 6267, broth-microdilution; unit assumed. Put shortly: as §1
Assay [9] relates to Pasteurella multocida PM 12080 (IV102277-0093, BRD field isolate). Kind of assay: MIC, broth-microdilution (CLSI VET01-A4), strain PM 12080. Conditions: Pasteurella multocida strain PM 12080, broth-microdilution; unit assumed. The procedure, abridged: as §1
Assay [10] relates to Mannheimia haemolytica MH 13093 (XB0472-6014.1, BRD field isolate). Kind of assay: MIC, broth-microdilution (CLSI VET01-A4), strain MH 13093. To be noted: Mannheimia haemolytica strain MH 13093, broth-microdilution; unit assumed. The procedure, abridged: as §1

Molecules are shown by their SMILES. ≈ marks a conversion by molar mass, not a printed value.

For `C=CCNCc1ccc(C#Cc2ccc(C(=O)N[C@H](C(=O)NO)C(C)(C)SC)cc2)cc1` [C.236], the MIC PM 10775 in assay [1] is not above 0.1 µg/mL. The MIC PM 6391 in assay [2] turned out to be 0.4 µg/mL (≈ 0.886 µM). Also, the MIC MH 6357 in assay [3] worked out at 0.8 µg/mL (≈ 1.77 µM). Also, the MIC MH 13065 in [4] stood at 0.8 µg/mL (≈ 1.77 µM). The molecule also gave an MIC MH 10720 in [5] not above 0.1 µg/mL. For the same molecule, the MIC MH 6374 in assay [6] stood at 0.8 µg/mL (≈ 1.77 µM). The same molecule had an MIC MH 12587 in assay [7] of 1.6 µg/mL (≈ 3.54 µM). Moreover, in assay [8], the MIC PM 6267 was not above 0.1 µg/mL. Moreover, the MIC PM 12080 in assay [9] is 0.4 µg/mL (≈ 0.886 µM). The MIC MH 13093 in assay [10] is 0.8 µg/mL (≈ 1.77 µM).
Turning to `COCCNCc1ccc(C#Cc2ccc(C(=O)N[C@H](C(=O)NO)C(C)(C)SC)cc2)cc1` [C.237], the MIC PM 10775 in assay [1] was not above 0.1 µg/mL. The molecule further displayed an MIC PM 6391 in assay [2] of 0.8 µg/mL (≈ 1.7 µM). In addition, in assay [3], the MIC MH 6357 was found to be 1.6 µg/mL (≈ 3.41 µM). This molecule registered an MIC MH 13065 in assay [4] of 1.6 µg/mL (≈ 3.41 µM). This molecule also returned an MIC MH 10720 in assay [5] of 0.2 µg/mL (≈ 0.426 µM). The same molecule returned an MIC MH 6374 in assay [6] of 1.6 µg/mL (≈ 3.41 µM). This molecule gave an MIC MH 12587 in assay [7] of 3.1 µg/mL (≈ 6.6 µM). For the same molecule, in [8], the MIC PM 6267 was 0.2 µg/mL (≈ 0.426 µM). Besides, in assay [9], the MIC PM 12080 worked out at 0.4 µg/mL (≈ 0.852 µM). The same molecule registered an MIC MH 13093 in assay [10] of 1.6 µg/mL (≈ 3.41 µM).
As to `CC(C)([C@H](NC(=O)c1ccc(C#Cc2ccc(CNC3CC3)cc2)cc1)C(=O)NO)S(C)(=O)=O` [C.255], the MIC PM 10775 in assay [1] is not above 0.1 µg/mL. For the same molecule, the MIC PM 6391 in [2] was not above 0.1 µg/mL. In [3], this molecule had an MIC MH 6357 of 0.8 µg/mL (≈ 1.65 µM). Also, in assay [4], the MIC MH 13065 was 0.4 µg/mL (≈ 0.827 µM). Moreover, the MIC MH 10720 in assay [5] was not above 0.1 µg/mL. In addition, the MIC MH 6374 in assay [6] came out at 0.4 µg/mL (≈ 0.827 µM). The MIC MH 12587 in assay [7] amounted to 1.6 µg/mL (≈ 3.31 µM). Moreover, the MIC PM 6267 in assay [8] was not above 0.1 µg/mL. In assay [9], the MIC PM 12080 is not above 0.1 µg/mL. The molecule also had an MIC MH 13093 in assay [10] of 0.8 µg/mL (≈ 1.65 µM).
For `C=CCNCc1ccc(C#Cc2ccc(C(=O)N[C@H](C(=O)NO)C(C)(C)S(C)(=O)=O)cc2)cc1` [C.256], in assay [1], the MIC PM 10775 was not above 0.1 µg/mL. Further, in assay [2], the MIC PM 6391 is not above 0.1 µg/mL. The MIC MH 6357 in [3] worked out at 1.6 µg/mL (≈ 3.31 µM). For the same molecule, in assay [4], the MIC MH 13065 was 0.8 µg/mL (≈ 1.65 µM). In addition, the MIC MH 10720 in assay [5] is not above 0.1 µg/mL. The molecule also showed an MIC MH 6374 in assay [6] of 0.8 µg/mL (≈ 1.65 µM). In [7], the MIC MH 12587 was determined as 1.6 µg/mL (≈ 3.31 µM). Besides, the MIC PM 6267 in [8] is not above 0.1 µg/mL. Besides, the MIC PM 12080 in assay [9] was not above 0.1 µg/mL. For the same molecule, the MIC MH 13093 in assay [10] was 0.8 µg/mL (≈ 1.65 µM).
`CC(C)([C@H](NC(=O)c1ccc(C#Cc2ccc(CNCc3ccccc3)cc2)cc1)C(=O)NO)S(C)(=O)=O` [C.259] showed an MIC PM 10775 in assay [1] not above 0.1 µg/mL. The same molecule registered an MIC PM 6391 in assay [2] not above 0.1 µg/mL. For the same molecule, in assay [3], the MIC MH 6357 came to 0.8 µg/mL (≈ 1.5 µM). The same molecule came in with an MIC MH 13065 in [4] of 0.4 µg/mL (≈ 0.75 µM). For the same molecule, the MIC MH 10720 in assay [5] is not above 0.1 µg/mL. In assay [6], this molecule showed an MIC MH 6374 of 0.4 µg/mL (≈ 0.75 µM). For the same molecule, the MIC MH 12587 in assay [7] is 0.8 µg/mL (≈ 1.5 µM). For the same molecule, in assay [8], the MIC PM 6267 was not above 0.1 µg/mL. Moreover, the MIC PM 12080 in assay [9] was not above 0.1 µg/mL. In assay [10], this molecule gave an MIC MH 13093 of 0.8 µg/mL (≈ 1.5 µM).
With `CC(C)([C@H](NC(=O)c1ccc(C#Cc2ccc(CNCc3ccncc3)cc2)cc1)C(=O)NO)S(C)(=O)=O` [C.261], the MIC PM 10775 in assay [1] is not above 0.1 µg/mL. Besides, in assay [2], the MIC PM 6391 is not above 0.1 µg/mL. The same molecule yielded an MIC MH 6357 in assay [3] of 0.4 µg/mL (≈ 0.748 µM). In assay [4], this molecule showed an MIC MH 13065 of 0.4 µg/mL (≈ 0.748 µM). The molecule further displayed an MIC MH 10720 in assay [5] not above 0.1 µg/mL. In assay [6], this molecule gave an MIC MH 6374 of 0.4 µg/mL (≈ 0.748 µM). Besides, the MIC MH 12587 in [7] is 0.8 µg/mL (≈ 1.5 µM). Further, the MIC PM 6267 in [8] was not above 0.1 µg/mL. The MIC PM 12080 in assay [9] is not above 0.1 µg/mL. In [10], this molecule yielded an MIC MH 13093 of 0.4 µg/mL (≈ 0.748 µM).
For the molecule `CC(C)([C@H](NC(=O)c1ccc(C#Cc2ccc(CNCc3cccnc3)cc2)cc1)C(=O)NO)S(C)(=O)=O` [C.267], the MIC PM 10775 in assay [1] was not above 0.1 µg/mL. Besides, in assay [2], the MIC PM 6391 was not above 0.1 µg/mL. Moreover, the MIC MH 6357 in [3] came to 0.8 µg/mL (≈ 1.5 µM). In addition, in assay [4], the MIC MH 13065 amounted to 0.8 µg/mL (≈ 1.5 µM). The same molecule gave an MIC MH 10720 in assay [5] not above 0.1 µg/mL. In assay [6], this molecule had an MIC MH 6374 of 0.4 µg/mL (≈ 0.748 µM). This molecule also showed an MIC MH 12587 in assay [7] of 1.6 µg/mL (≈ 2.99 µM). The molecule further displayed an MIC PM 6267 in [8] not above 0.1 µg/mL. The same molecule gave an MIC PM 12080 in [9] not above 0.1 µg/mL. The same molecule displayed an MIC MH 13093 in assay [10] of 0.8 µg/mL (≈ 1.5 µM).
